From US9157064B2, “Methods for generating inner ear cells in vitro” (The Board of Trustees of the Leland Stanford Junior …, priority 2011, dated 2015)
Entries after “also recorded” stand apart in the source; their conditions may differ.

What was measured:
[1] = system: ESC-derived cultures; test: Otic induction of ESC-derived embryoid body cultures (Pax2 immunostaining); assay type: cell-based, mouse; conditions: D/S/I-treated ESC-derived embryoid body cells; SU5402 treatment between d5 and d8
Method: Embryoid bodies were transferred into fibronectin-coated 4-well dishes (Greiner) at 30 embryoid bodies per well and cultured for three days in DMEM/F12 (Invitrogen, mixed 1:1) supplemented with N2 and B27 (Invitrogen), bFGF (R&D Systems, 25 ng/ml), heparin sulfate (Sigma, 50 ng/ml), and ampicillin ([…]). FGF3 (recombinant human FGF-3, R&D Systems) and FGF10 (recombinant human FGF-10, R&D Systems) were used at 25 ng/ml in parallel experiments. The FGF receptor antagonist SU5402 (a gift from Pfizer R&D) was used at […]. After FGF-treatment, the cells were detached using 0.05% trypsin/EDTA (Sigma) in PBS, mildly triturated, and passed 1:10 into individual wells of 4-well dishes coated with either fibronectin, gelatin, MEFs, or mitotically inactivated embryonic (E18) chicken utricle stromal cells. Utricle stromal cells were prepared from 20 utricles whose sensory epithelia were removed after 40 min treatment with 0.5 mg/ml thermolysin (Sigma) in DMEM/F12 at 37 C. After addition of 5% serum, the sensory epithelia were removed and used in unrelated experiments. […]
(§1) For immunocytochemistry, the cells were fixed with 4% paraformaldehyde in PBS for 15 min at room temperature. […] Images were acquired with a Zeiss Axioimager/LSM 5 Exciter fluorescence and confocal microscope. […]

[2] = system: ESC-derived embryoid bodies; test: Suppression of meso- and endodermal differentiation in ESC-derived embryoid bodies (Brachyury/GATA6 immunostaining); assay type: cell-based, mouse; conditions: single factor
Method: ES cell line C9 and iPS cell line #25-5 were used for all guidance experiments. MEF feeder cells were removed either by weaning the cells off for several passages or by pre-culturing the cells for 40 min allowing MEFs to attach. For embryoid body formation, the cells were dissociated with 0.25% trypsin-EDTA (Invitrogen) and cultured in poly(2-hydroxyethyl methacrylate)-coated 6-well cell suspension plates (Greiner). Coating was done by covering the plates with 1 ml of 2% poly(2 hydroxyethyl methacrylate) (Sigma) solution in 1:1 ethanol/acetone. After 2 min, the solution was completely aspirated and the plates were dried with open lid for 20 min in a cell culture cabinet. After three washes with PBS, the ES and iPS cells were added at a density of 50 cells/ml and cultured for 5 days in DMEM (Invitrogen) with 15% FBS, 0.1 mM MEM non-essential amino acids, […] 2-mercaptoethanol, 2 mM L-glutamine and […] ampicillin. For otic induction experiments, the following growth factors or reagents were added to the medium: recombinant mouse Dickkopf related protein 1 (Dkk-1) at 100 ng/ml (R&D Systems), SIS3 at […] (Sigma), and IGF1 at 10 ng/ml (Sigma). […]
as §1

[3] = system: ESC- and iPSC-derived cells; test: Differentiation cultures of D/S/I and bFGF-treated ESC- and iPSC-derived cells with added supplements; assay type: cell-based, mouse; conditions: differentiation cultures supplemented, data not shown
From the text: Future identification of these signals could provide important clues about the mechanisms controlling the initiation of hair bundle growth during embryonic development.
Beside FGF signaling, activation of the canonical Wnt pathway has been proposed to further promote otic commitment of Pax2-expressing cells of the FGF-dependent pre-otic field of the chicken embryo (Ohyama et al., 2006).

[4] = system: hESCs; test: Otic induction from hESCs (PAX2-expressing otic progenitor cells); assay type: cell-based, human; conditions: hESC-derived cultures; factor added in the induction and/or stabilization phase (FIG. 23)
Method: FIG. 22. Optimization of lengths of incubations with factors for culturing cell populations comprising otic progenitor cells from hESCs. (a) and (b). A culture that is enriched 8.3% for PAX2-expressing otic progenitor cells may be generated by the incubation of hESCs with DKK1/SIS3/IFG-1 for 5 days, followed by incubation of the resultant embryoid bodies comprising preplacodal ectodermal cells with bFGF for 3 days.
FIG. 23A-C. Culturing in the presence of different factors impacts the proportion of otic progenitor cells produced. (a) Culturing in the presence of BMP4 reduces the proportion of otic progenitor cells produced. (b) Culturing in the presence of Noggin during the induction phase of otic progenitor cell fate acquisition, and restricting the exposure of cells to BMP4 to the stabilization phase of otic progenitor cell fate acquisition increases the proportion of otic progenitor cells produced. (c) Culturing in the presence of R-spondin 1 during the induction phase of otic progenitor cell fate acquisition increases the proportion of otic progenitor cells produced.
FIG. 23D. Culturing in the presence of FGF19 during both the induction phase and the stabilization phase of otic progenitor cell fate acquisition increases the proportion of otic progenitor cells produced.

Molecule: Cc1c[nH]c(/C=C2\C(=O)Nc3ccccc32)c1CCC(=O)O [SU5402]
- Pax2 induction / Pax2 expression [1]: abolishment of Pax2 induction; also recorded: virtually diminished Pax2 expression

Molecule: COc1cc2c(cc1OC)CN(C(=O)/C=C/c1c(-c3ccccc3)n(C)c3ncccc13)CC2 [SIS3, reference compound]
- number of Brachyury-positive cells, factor alone [2]: significantly reduced

Molecule: [Cl-].[Li+] [LiCl, reference compound]
- ability or efficiency to generate hair cell-like cells [3]: did not observe an increase

Molecule: FGF19: fibroblast growth factor 19, ligand for FGFR4
- proportion of otic progenitor cells produced [4]: increases

B1: Wnt3a: recombinant Wnt3a (protein, UniProt P56704 19-352, looked up)
Protein Wnt-3a: SYPIWWSLAVGPQYSSLGSQPILCASIPGLVPKQLRFCRNYVEIMPSVAEGIKIGIQECQHQFRGRRWNCTTVHDSLAIFGPVLDKATRESAFVHAIASAGVAFAVTRSCAEGTAAICGCSSRHQGSPGKGWKWGGCSEDIEFGGMVSREFADARENRPDARSAMNRHNNEAGRQAIASHMHLKCKCHGLSGSCEVKTCWWSQPDFRAIGDFLKDKYDSASEMVVEKHRESRGWVETLRPRYTYFKVPTERDLVYYEASPNFCEPNPETGSFGTRDRTCNVSSHGIDGCDLLCCGRGHNARAERRREKCRCVFHWCCYVSCQECTRVYDVHTCK
- ability or efficiency to generate hair cell-like cells [3]: did not observe an increase

B2: R-spondin 1: Roof plate-specific Spondin 1, natural enhancer of the canonical Wnt pathway (protein, UniProt Q2MKA7 21-263, looked up)
R-spondin-1: SRGIKGKRQRRISAEGSQACAKGCELCSEVNGCLKCSPKLFILLERNDIRQVGVCLPSCPPGYFDARNPDMNKCIKCKIEHCEACFSHNFCTKCKEGLYLHKGRCYPACPEGSSAANGTMECSSPAQCEMSEWSPWGPCSKKQQLCGFRRGSEERTRRVLHAPVGDHAACSDTKETRRCTVRRVPCPEGQKRRKGGQGRRENANRNLARKESKEAGAGSRRRKGQQQQQQQGTVGPLTSAGPA
- proportion of otic progenitor cells produced [4]: increases

B3: BMP4: activator of BMP signaling (protein, UniProt P12644 293-408, looked up)
Bone morphogenetic protein 4: SPKHHSQRARKKNKNCRRHSLYVDFSDVGWNDWIVAPPGYQAFYCHGDCPFPLADHLNSTNHAIVQTLVNSVNSSIPKACCVPTELSAISMLYLDEYDKVVLKNYQEMVVEGCGCR
- proportion of otic progenitor cells produced [4]: reduces

B4: Noggin: naturally occurring inhibitor of BMP signaling (protein, UniProt Q13253 28-232, looked up)
Noggin: QHYLHIRPAPSDNLPLVDLIEHPDPIFDPKEKDLNETLLRSLLGGHYDPGFMATSPPEDRPGGGGGAAGGAEDLAELDQLLRQRPSGAMPSEIKGLEFSEGLAQGKKQRLSKKLRRKLQMWLWSQTFCPVLYAWNDLGSRFWPRYVKVGSCFSKRSCSVPEGMVCKPSKSVHLTVLRWRCQRRGGQRCGWIPIQYPIISECKCSC
- proportion of otic progenitor cells produced [4]: increases
